Assay: an = ratio of the nth substance listed
Conditions: 101 kPa, Liquid, a1 = 2

NC(N)=O [urea] + C[N+](C)(C)CCO.[Cl-]
Conditions | mass density [kg/m3] | viscosity [mPa·s]
298.15 K | 1197.9 | 1571
303.15 K | 1195.2 | 953.7
308.15 K | 1192.7 | 608.4
313.15 K | 1190.1 | 403.2
318.15 K | 1187.5 | 277.2
323.15 K | 1184.9 | 195.9
328.15 K | 1182.3 | 143.6
333.15 K | 1179.7 | 107.7
